Laboratory results from patent US20100286145A1, “ISOPHTHALAMIDE DERIVATIVES INHIBITING BETA-SECRETASE ACTIVITY” (CoMentis, Inc., priority 2007, published 2010).
Read-outs that look alike come from different tables or passages of the source.

Experiments:
[1] = biological target: memapsin 2 (Homo sapiens, UniProt P56817); assay: Inhibition of memapsin 2 beta-secretase activity (fluorogenic substrate FS-2); type: biochemical; settings: memapsin 2, pH 4, 37° C., read-out: M2Ki
Outline: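 Kinetic fluorogenic assay: hydrolysis of the MCA/DNP-labelled APP Swedish-variant peptide FS-2 monitored as fluorescence rise at 37° C, pH 4, after 20 min enzyme–compound preincubation. Relative rates fitted with a tight-binding inhibitor model.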

[2] = biological target: T1, memapsin 1 (Homo sapiens, UniProt Q9Y5Z0); assay: Inhibition of memapsin 1 beta-secretase activity (substrate peptide ELDLAVEFWHDR, MALDI-TOF); type: biochemical; settings: read-out: M1Ki
T1 sequence (Q9Y5Z0 63-518): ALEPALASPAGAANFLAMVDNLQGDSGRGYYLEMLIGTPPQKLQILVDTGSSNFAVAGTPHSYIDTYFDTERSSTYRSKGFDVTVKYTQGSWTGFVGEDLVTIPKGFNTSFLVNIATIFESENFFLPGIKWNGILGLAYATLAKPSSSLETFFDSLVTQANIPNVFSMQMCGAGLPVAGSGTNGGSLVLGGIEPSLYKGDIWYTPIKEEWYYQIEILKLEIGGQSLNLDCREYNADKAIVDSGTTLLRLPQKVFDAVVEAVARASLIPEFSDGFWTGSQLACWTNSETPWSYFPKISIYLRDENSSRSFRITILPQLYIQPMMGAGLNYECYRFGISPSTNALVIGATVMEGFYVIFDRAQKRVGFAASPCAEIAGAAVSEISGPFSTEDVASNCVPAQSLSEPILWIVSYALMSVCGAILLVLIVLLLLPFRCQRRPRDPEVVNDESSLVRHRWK

[3] = biological target: cathepsin D (Homo sapiens, UniProt P07339); assay: Inhibition of cathepsin D activity (substrate peptide ELDLAVEFWHDR, MALDI-TOF); type: biochemical; settings: read-out: CDKi
cathepsin D, sequence (P07339 65-412, species assumed): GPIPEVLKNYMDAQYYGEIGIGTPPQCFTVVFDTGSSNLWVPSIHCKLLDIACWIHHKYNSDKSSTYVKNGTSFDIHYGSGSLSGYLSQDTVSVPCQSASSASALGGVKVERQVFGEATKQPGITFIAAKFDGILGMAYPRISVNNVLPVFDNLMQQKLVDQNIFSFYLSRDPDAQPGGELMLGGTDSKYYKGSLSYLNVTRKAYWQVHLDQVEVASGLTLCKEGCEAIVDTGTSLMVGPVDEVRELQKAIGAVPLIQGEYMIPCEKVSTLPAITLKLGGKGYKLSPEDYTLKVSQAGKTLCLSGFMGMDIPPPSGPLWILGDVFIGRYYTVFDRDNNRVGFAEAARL

[4] = system: Aβ production in Chinese hamster ovary cells that over-express human APP695 with the London and Swedish mutations; assay: Cellular Aβ IC50 determination (Aβ40 sandwich ELISA); type: cell-based; settings: Cricetulus griseus; cellular Aβ production; read-out: IC50
Outline: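 Aβ40 in media quantified by sandwich ELISA, normalized to control incubations and fitted with a 4-parameter IC50 model. Compounds dosed to a final concentration near 4 μM (0.4% DMSO) on CHO cells expressing human APP695 (London and Swedish mutants) seeded at 10% confluency.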

memapsin 2, sequence (P56817 46-501): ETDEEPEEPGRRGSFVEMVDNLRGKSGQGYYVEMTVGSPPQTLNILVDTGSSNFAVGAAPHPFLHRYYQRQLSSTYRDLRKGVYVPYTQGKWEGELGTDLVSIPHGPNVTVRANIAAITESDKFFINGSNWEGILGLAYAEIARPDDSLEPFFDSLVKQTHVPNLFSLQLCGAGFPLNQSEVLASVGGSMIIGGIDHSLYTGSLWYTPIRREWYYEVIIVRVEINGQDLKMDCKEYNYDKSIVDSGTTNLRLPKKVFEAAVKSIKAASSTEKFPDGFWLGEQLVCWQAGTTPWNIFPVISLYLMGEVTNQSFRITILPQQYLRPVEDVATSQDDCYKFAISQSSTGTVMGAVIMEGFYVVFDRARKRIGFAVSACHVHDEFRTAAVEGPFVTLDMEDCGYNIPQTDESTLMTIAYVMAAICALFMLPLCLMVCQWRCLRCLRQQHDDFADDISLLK

| Compound | Ki ([1]; 20 minutes pre-incubation) [µM] | Ki [2] [µM] | Ki [3] [µM] | IC50 [4] [µM] | Ki ([1]; fluorogenic substrate FS-2) [µM] |
| --- | --- | --- | --- | --- | --- |
| COc1cccc(CNC[C@@H](O)[C@H](Cc2ccccc2)NC(=O)c2cc(OC)cc(C(=O)N(C)Cc3nc(C)cs3)c2)c1 [Compound 3, N1-((2S,3R)-3-hydroxy-4-(3-methoxybenzylamino)-1-phenylbutan-2-yl)-5-methoxy-N3-methyl-N3-((4-methylthiazol-2-yl)methyl)isophthalamide] | < 0.3 | 0.301 to 0.5 | < 0.3 | < 1 |  |
| COc1cc(CNC[C@@H](O)[C@H](Cc2ccccc2)NC(=O)c2cccc(C(=O)N(C)Cc3nc(C)cs3)c2)cc(OC)c1 [Compound 8, N1-((2S,3R)-4-(3,5-dimethoxybenzylamino)-3-hydroxy-1-phenylbutan-2-yl)-N3-methyl-N3-((4-methylthiazol-2-yl)methyl)isophthalamide] | < 0.3 | 0.301 to 0.5 | < 0.3 | < 1 |  |
| COC(=O)c1cc(C(=O)N[C@@H](Cc2ccccc2)[C@H](O)CNCc2cccc(OC)c2)cc(C(=O)N(C)Cc2nc(C)cs2)c1 [Compound 17, methyl 3-((2S,3R)-3-hydroxy-4-(3-methoxybenzylamino)-1-phenylbutan-2-ylcarbamoyl)-5-(methyl((4-methylthiazol-2-yl)methyl)carbamoyl)benzoate] | < 0.3 | > 0.501 | < 0.3 | < 1 |  |
| C=Cc1cc(C(=O)N[C@@H](Cc2ccccc2)[C@H](O)CNCc2cccc(OC)c2)cc(C(=O)N(C)Cc2nc(C)cs2)c1 [Compound 21, N1-((2S,3R)-3-hydroxy-4-(3-methoxybenzylamino)-1-phenylbutan-2-yl)-N3-methyl-N3-((4-methylthiazol-2-yl)methyl)-5-vinylisophthalamide] | < 0.3 | > 0.501 | < 0.3 | < 1 |  |
| Cc1csc(CN(C(=O)c2cccc(C(=O)N[C@@H](Cc3ccccc3)[C@H](O)CNCc3cccc(C(F)(F)F)c3)c2)C2CC2)n1 [Compound 29, N1-cyclopropyl-N3-((2S,3R)-3-hydroxy-1-phenyl-4-(3-(trifluoromethyl)benzylamino)butan-2-yl)-N1-((4-methylthiazol-2-yl)methyl)isophthalamide] | < 0.3 | 0.301 to 0.5 | < 0.3 | < 1 |  |
| Cc1cc(C(=O)N[C@@H](Cc2ccccc2)[C@H](O)CNCc2cncc(C(C)C)c2)cc(C(=O)N(C)Cc2nc(C)cs2)c1 [Compound 32, N1-((2S,3R)-3-hydroxy-4-((5-isopropylpyridin-3-yl)methylamino)-1-phenylbutan-2-yl)-N3,5-dimethyl-N3-((4-methylthiazol-2-yl)methyl)isophthalamide] | < 0.3 | < 0.3 | < 0.3 | < 1 |  |
| COc1cccc(CNC[C@@H](O)[C@H](Cc2ccccc2)NC(=O)c2cc(C(N)=O)cc(C(=O)N[C@H](C)c3ccccc3)c2)c1 [Compound 91, N1-((2S,3R)-3-hydroxy-4-(3-methoxybenzylamino)-1-phenylbutan-2-yl)-N3-((R)-1-phenylethyl)benzene-1,3,5-tricarboxamide] | > 0.501 | < 0.3 | > 0.501 |  |  |
| Cc1csc(CN(C)C(=O)c2cc(C(=O)N[C@@H](Cc3ccccc3)[C@H](O)CNCc3cncc(C(C)C)c3)cc(-c3ncco3)c2)n1 [Compound 170, N1-((2S,3R)-3-hydroxy-4-((5-isopropylpyridin-3-yl)methylamino)-1-phenylbutan-2-yl)-N3-methyl-N3-((4-methylthiazol-2-yl)methyl)-5-(oxazol-2-yl)isophthalamide] | < 0.3 | < 0.3 |  | < 1 |  |
| Cc1csc(CN(C)C(=O)c2cccc(C(=O)N[C@@H](Cc3cc(F)cc(F)c3)[C@H](O)CNCc3cncc(C(C)C)c3)c2)n1 [Compound 208, N1-((2S,3R)-1-(3,5-difluorophenyl)-3-hydroxy-4-((5-isopropylpyridin-3-yl)methylamino)butan-2-yl)-N3-methyl-N3-((4-methylthiazol-2-yl)methyl)isophthalamide] | < 0.3 | < 0.3 |  | < 1 |  |
| Cc1csc(CN(C)C(=O)c2cc(C(=O)N[C@@H](Cc3ccccc3)[C@H](O)CNCc3cncc(C(C)C)c3)cc(-c3cnco3)c2)n1 [Compound 218, N1-((2S,3R)-3-hydroxy-4-((5-isopropylpyridin-3-yl)methylamino)-1-phenylbutan-2-yl)-N3-methyl-N3-((4-methylthiazol-2-yl)methyl)-5-(oxazol-5-yl)isophthalamide] |  | < 0.3 |  | < 1 | < 0.3 |
| Cc1csc(CN(C)C(=O)c2cc(C(=O)N[C@@H](Cc3ccccc3)[C@H](O)CNCc3cncc(C(C)(C)F)c3)cc(N(C)C)c2)n1 [Compound 220, 5-(dimethylamino)-N1-((2S,3R)-4-((5-(2-fluoropropan-2-yl)pyridin-3-yl)methylamino)-3-hydroxy-1-phenylbutan-2-yl)-N3-methyl-N3-((4-methylthiazol-2-yl)methyl)isophthalamide] |  | < 0.3 |  | < 1 | < 0.3 |
| Cc1csc(CN(C)C(=O)c2cccc(C(=O)N[C@@H](Cc3ccccc3)[C@H](O)CNCc3cc(CS(C)(=O)=O)cc(C(C)C)c3)c2)n1 [Compound 228, N1-((2S,3R)-3-hydroxy-4-(3-isopropyl-5-(methylsulfonylmethyl)benzylamino)-1-phenylbutan-2-yl)-N3-methyl-N3-((4-methylthiazol-2-yl)methyl)isophthalamide] |  | 0.301 to 0.5 |  | < 1 | < 0.3 |
| CC(=O)Nc1cc(CNC[C@@H](O)[C@H](Cc2ccccc2)NC(=O)c2cccc(C(=O)N(C)Cc3nc(C)cs3)c2)cc(C(F)(F)F)c1 [Compound 276, N1-((2S,3R)-4-(3-acetamido-5-(trifluoromethyl)benzylamino)-3-hydroxy-1-phenylbutan-2-yl)-N3-methyl-N3-((4-methylthiazol-2-yl)methyl)isophthalamide] |  |  |  | < 1 | < 0.3 |
| Cc1csc(CN(C)C(=O)c2cc(C(=O)N[C@@H](Cc3ccccc3)[C@H](O)CNCc3cncc(C(C)(C)F)c3)cc(C(C)C)c2)n1 [Compound 277, N1-((2S,3R)-4-((5-(2-fluoropropan-2-yl)pyridin-3-yl)methylamino)-3-hydroxy-1-phenylbutan-2-yl)-5-isopropyl-N3-methyl-N3-((4-methylthiazol-2-yl)methyl)isophthalamide] |  |  |  | < 1 | < 0.3 |
| CC(C)c1cncc(CNC[C@@H](O)[C@H](Cc2ccccc2)NC(=O)c2cccc(C(=O)N(C)Cc3nc(CF)cs3)c2)c1 [Compound 278, N1-((4-(fluoromethyl)thiazol-2-yl)methyl)-N3-((2S,3R)-3-hydroxy-4-((5-isopropylpyridin-3-yl)methylamino)-1-phenylbutan-2-yl)-N1-methylisophthalamide] |  |  |  | < 1 | < 0.3 |
| CO/C=C(/C)c1cncc(CNC[C@@H](O)[C@H](Cc2ccccc2)NC(=O)c2cccc(C(=O)N(C)Cc3nc(C)cs3)c2)c1 [Compound 279, N1-((2S,3R)-3-hydroxy-4-((5-((Z)-1-methoxyprop-1-en-2-yl)pyridin-3-yl)methylamino)-1-phenylbutan-2-yl)-N3-methyl-N3-((4-methylthiazol-2-yl)methyl)isophthalamide] |  |  |  | < 1 | 0.301 to 0.5 |
| CN(Cc1nc(CF)cs1)C(=O)c1cccc(C(=O)N[C@@H](Cc2ccccc2)[C@H](O)CNCc2cncc(C(F)(F)F)c2)c1 [Compound 280, N1-((4-(fluoromethyl)thiazol-2-yl)methyl)-N3-((2S,3R)-3-hydroxy-1-phenyl-4-((5-(trifluoromethyl)pyridin-3-yl)methylamino)butan-2-yl)-N1-methylisophthalamide] |  |  |  | < 1 | < 0.3 |
| Cc1csc(CN(C)C(=O)c2cc(C(=O)N[C@@H](Cc3ccccc3)[C@H](O)CNCc3cncc(C(C)(C)F)c3)cc(C(F)F)c2)n1 [Compound 293, 5-(difluoromethyl)-N1-((2S,3R)-4-((5-(2-fluoropropan-2-yl)pyridin-3-yl)methylamino)-3-hydroxy-1-phenylbutan-2-yl)-N3-methyl-N3-((4-methylthiazol-2-yl)methyl)isophthalamide] |  |  |  | < 1 | < 0.3 |
| COC1(OC)CCN(c2cc(C(=O)N[C@@H](Cc3ccccc3)[C@H](O)CNCc3cncc(C(C)C)c3)cc(C(=O)N(C)Cc3nc(C)cs3)c2)C1 [Compound 299, 5-(3,3-dimethoxypyrrolidin-1-yl)-N1-((2S,3R)-3-hydroxy-4-((5-isopropylpyridin-3-yl)methylamino)-1-phenylbutan-2-yl)-N3-methyl-N3-((4-methylthiazol-2-yl)methyl)isophthalamide] |  |  |  | < 1 | < 0.3 |
